29 compounds from US20250333406A1, “SULFONYL CYCLIC DERIVATIVES, AND COMPOSITIONS AND METHODS THEREOF” (Lysoway Therapeutics, Inc., priority 2023, published 2025) can be followed below.

pEC50: −log10 of the molar value. Bounds are passed on as bounds.

This experiment deals with TFEB. The experiment is described as follows: TFEB Nuclear Translocation Assay. As to conditions: read-out: EC50 of TFEB activation. The class given is cell-based.
What is called pEC50 is the EC50 on a negative log10 scale, so that one unit is a factor of ten. `O=S(=O)(c1ccc(C(F)F)cc1)n1nc(N2CCN(c3ncc(F)cn3)CC2C(F)(F)F)c2c(Cl)cccc21` (centres unmarked) [Compound 77, 4-chloro-1-[4-(difluoromethyl)phenyl]sulfonyl-3-[4-(5-fluoropyrimidin-2-yl)-2-(trifluoromethyl)piperazin-1-yl]indazole]: the pEC50 is ≥ 6.00.

Regarding `O=S(=O)(c1ccc(C(F)F)cc1)n1nc(N2CCN(c3ncc(F)cn3)CC23CC3)c2c(Cl)cccc21` [Compound 78, 4-chloro-1-[4-(difluoromethyl)phenyl]sulfonyl-3-[7-(5-fluoropyrimidin-2-yl)-4,7-diazaspiro [2.5]octan-4-yl]indazole], the pEC50 is ≥ 6.00. As for `CC(C)S(=O)(=O)c1ccc(S(=O)(=O)n2nc(N3CCC(Cl)=CC3C(F)(F)F)c3c(Cl)cccc32)cc1` (centres unmarked) [Compound 79, 4-chloro-3-[4-chloro-6-(trifluoromethyl)-3,6-dihydro-2H-pyridin-1-yl]-1-(4-isopropylsulfonylphenyl) sulfonyl-indazole], the negative-log EC50 (pEC50) is ≥ 6.00. To `CC(C)S(=O)(=O)c1ccc(S(=O)(=O)n2nc(N3CCC(Cl)=C[C@@H]3C(F)(F)F)c3c(Cl)cccc32)cc1` [Compound 80, 4-chloro-3-[(6R)-4-chloro-6-(trifluoromethyl)-3,6-dihydro-2H-pyridin-1-yl]-1-(4-isopropylsulfonylphenyl)sulfonyl-indazole] belongs ≥ 6.00.

Turning to `CC(C)S(=O)(=O)c1ccc(S(=O)(=O)n2nc(N3CCC(Cl)=C[C@H]3C(F)(F)F)c3c(Cl)cccc32)cc1` [Compound 81, 4-chloro-3-[(6S)-4-chloro-6-(trifluoromethyl)-3,6-dihydro-2H-pyridin-1-yl]-1-(4-isopropylsulfonylphenyl)sulfonyl-indazole], the pEC50 is ≥ 6.00. For the compound `CC(C)S(=O)(=O)c1ccc(S(=O)(=O)n2nc(N3CC=C(Cl)C[C@@H]3C(F)(F)F)c3c(Cl)cccc32)cc1` [Compound 82, 4-chloro-3-[(2R)-4-chloro-2-(trifluoromethyl)-3,6-dihydro-2H-pyridin-1-yl]-1-(4-isopropylsulfonylphenyl)sulfonyl-indazole], the pEC50 was ≥ 6.00. On to `CC(C)S(=O)(=O)c1ccc(S(=O)(=O)n2nc(N3CCC(=O)CC3C(F)(F)F)c3c(Cl)cccc32)cc1` (centres unmarked) [Compound 84, 1-[4-chloro-1-(4-isopropylsulfonylphenyl)sulfonyl-indazol-3-yl]-2-(trifluoromethyl)piperidin-4-one], for which the pEC50 was ≥ 6.00. Consider `CC(C)S(=O)(=O)c1ccc(S(=O)(=O)n2nc(N3CCC(F)(F)CC3C(F)(F)F)c3c(Cl)cccc32)cc1` (centres unmarked) [Compound 85, 4-chloro-3-[4,4-difluoro-2-(trifluoromethyl)-1-piperidyl]-1-(4-isopropylsulfonylphenyl) sulfonyl-indazole], for which the negative-log EC50 (pEC50) was ≥ 6.00. Consider `CC(C)S(=O)(=O)c1ccc(S(=O)(=O)n2nc(N3CCC(OC(F)F)CC3C(F)(F)F)c3c(Cl)cccc32)cc1` (centres unmarked) [Compound 86, 4-chloro-3-[4-(difluoromethoxy)-2-(trifluoromethyl)-1-piperidyl]-1-(4-isopropylsulfonylphenyl) sulfonyl-indazole], for which the negative logarithm of the EC50 (pEC50) is ≥ 6.00.

As for `CC(C)S(=O)(=O)c1ccc(S(=O)(=O)n2nc(N3CCC(OC(F)F)CC34CC4)c3c(Cl)cccc32)cc1` (centres unmarked) [Compound 87, 4-chloro-3-[7-(difluoromethoxy)-4-azaspiro [2.5]octan-4-yl]-1-(4-isopropylsulfonylphenyl) sulfonyl-indazole], the pEC50 was ≥ 6.00. With `CC(F)(F)c1ccc(S(=O)(=O)n2nc(N3CCC4(CCO4)CC34CC4)c3c(Cl)cccc32)cc1` (centres unmarked) [Compound 88, 11-[4-chloro-1-[4-(1,1-difluoroethyl)phenyl]sulfonyl-indazol-3-yl]-8-oxa-11-azadispiro [2.1.35.33]undecane], the negative logarithm of the EC50 (pEC50) is ≤ 5.00. In the case of `O=S(=O)(c1ccc(C2(F)COC2)cc1)n1nc(N2CCN(c3ncc(F)cn3)CC23CC3)c2c(Cl)cccc21` [Compound 89, 4-chloro-1-[4-(3-fluorooxetan-3-yl)phenyl]sulfonyl-3-[7-(5-fluoropyrimidin-2-yl)-4,7-diazaspiro [2.5]octan-4-yl]indazole], the negative-log EC50 (pEC50) was ≥ 6.00. The same measure for `CC(C)C(F)(F)c1ccc(S(=O)(=O)n2nc(N3CCN(c4ncc(F)cn4)CC34CC4)c3c(Cl)cccc32)cc1` [Compound 90, 4-chloro-1-[4-(1,1-difluoro-2-methyl-propyl)phenyl]sulfonyl-3-[7-(5-fluoropyrimidin-2-yl)-4,7-diazaspiro [2.5]octan-4-yl]indazole]: ≥ 6.00; for `CC(F)(F)c1ccc(S(=O)(=O)n2nc(N3CCN(c4ncc(F)cn4)CC34CC4)c3c(Cl)cc(F)cc32)cc1` [Compound 91, 4-chloro-1-[4-(1,1-difluoroethyl)phenyl]sulfonyl-6-fluoro-3-[7-(5-fluoropyrimidin-2-yl)-4,7-diazaspiro [2.5]octan-4-yl]indazole]: ≥ 6.00.

As to `O=S(=O)(c1ccc(C(F)(F)C2CC2)cc1)n1nc(N2CCN(c3ncc(F)cn3)CC23CC3)c2c(Cl)cccc21` [Compound 92, 4-chloro-1-((4-(cyclopropyldifluoromethyl)phenyl)sulfonyl)-3-(7-(5-fluoropyrimidin-2-yl)-4,7-diazaspiro [2.5]octan-4-yl)-1H-indazole], the negative-log EC50 (pEC50) was ≥ 6.00. To `O=S(=O)(c1ccc(SC(F)F)cc1)n1nc(N2CCN(c3ncc(F)cn3)CC23CC3)c2c(Cl)cccc21` [Compound 93, 4-chloro-1-[4-(difluoromethylsulfanyl)phenyl]sulfonyl-3-[7-(5-fluoropyrimidin-2-yl)-4,7-diazaspiro [2.5]octan-4-yl]indazole] belongs ≥ 6.00; to `CC(C)(C)c1ccc(S(=O)(=O)n2nc(N3CCN(c4ncc(F)cn4)CC34CC4)c3c(Cl)cccc32)cc1` [Compound 94, 1-((4-(tert-butyl)phenyl)sulfonyl)-4-chloro-3-(7-(5-fluoropyrimidin-2-yl)-4,7-diazaspiro [2.5]octan-4-yl)-1H-indazole], ≥ 6.00; to `O=S(=O)(c1ccc(C(F)(F)C(F)F)cc1)n1nc(N2CCN(c3ncc(F)cn3)CC23CC3)c2c(Cl)cccc21` [Compound 95, 4-chloro-3-(7-(5-fluoropyrimidin-2-yl)-4,7-diazaspiro [2.5]octan-4-yl)-1-((4-(1,1,2,2-tetrafluoroethyl)phenyl)sulfonyl)-1H-indazole], ≥ 6.00. To `CC(C)(CF)c1ccc(S(=O)(=O)n2nc(N3CCN(c4ncc(F)cn4)CC34CC4)c3c(Cl)cccc32)cc1` [Compound 96, 4-chloro-1-[4-(2-fluoro-1,1-dimethyl-ethyl)phenyl]sulfonyl-3-[7-(5-fluoropyrimidin-2-yl)-4,7-diazaspiro [2.5]octan-4-yl]indazole] belongs ≥ 6.00; to `CC(C)(F)c1ccc(S(=O)(=O)n2nc(N3CCN(c4ncc(F)cn4)CC34CC4)c3c(Cl)cccc32)cc1` [Compound 97, 4-chloro-1-((4-(2-fluoropropan-2-yl)phenyl)sulfonyl)-3-(7-(5-fluoropyrimidin-2-yl)-4,7-diazaspiro [2.5]octan-4-yl)-1H-indazole], ≥ 6.00. With `O=S(=O)(c1ccc(C(F)(F)CF)cc1)n1nc(N2CCN(c3ncc(F)cn3)CC23CC3)c2c(Cl)cccc21` [Compound 98, 4-chloro-3-[7-(5-fluoropyrimidin-2-yl)-4,7-diazaspiro [2.5]octan-4-yl]-1-[4-(1,1,2-trifluoroethyl)phenyl]sulfonyl-indazole], the negative logarithm of the EC50 (pEC50) was ≥ 6.00. As for `CC(C)(c1ccc(S(=O)(=O)n2nc(N3CCN(c4ncc(F)cn4)CC34CC4)c3c(Cl)cccc32)cc1)C(F)F` [Compound 99, 4-chloro-1-[4-(2,2-difluoro-1,1-dimethyl-ethyl)phenyl]sulfonyl-3-[7-(5-fluoropyrimidin-2-yl)-4,7-diazaspiro[2.5]octan-4-yl]indazole], the negative logarithm of the EC50 (pEC50) was ≥ 6.00. For `CC(C)(C)c1ncc(S(=O)(=O)n2nc(N3CCN(c4ncc(F)cn4)CC34CC4)c3c(Cl)cccc32)cn1` [Compound 100, 1-(2-tert-butylpyrimidin-5-yl) sulfonyl-4-chloro-3-[7-(5-fluoropyrimidin-2-yl)-4,7-diazaspiro [2.5]octan-4-yl]indazole], the pEC50 is ≥ 6.00. On to `O=S(=O)(c1ccc(C2(C(F)(F)F)CC2)cc1)n1nc(N2CCN(c3ncc(F)cn3)CC23CC3)c2c(Cl)cccc21` [Compound 101, 4-chloro-3-[7-(5-fluoropyrimidin-2-yl)-4,7-diazaspiro [2.5]octan-4-yl]-1-[4-[1-(trifluoromethyl)cyclopropyl]phenyl]sulfonyl-indazole], for which the negative logarithm of the EC50 (pEC50) was ≥ 6.00.

As for `CCC(F)(F)c1ccc(S(=O)(=O)n2nc(N3CCN(c4ncc(F)cn4)CC34CC4)c3c(Cl)cccc32)cc1` [Compound 102, 4-chloro-1-[4-(1,1-difluoropropyl)phenyl]sulfonyl-3-[7-(5-fluoropyrimidin-2-yl)-4,7-diazaspiro [2.5]octan-4-yl]indazole], the negative logarithm of the EC50 (pEC50) is ≥ 6.00. To `CC(F)(F)c1ccc(S(=O)(=O)n2nc(N3CCN(c4ncc(F)cn4)CC34CC4)c3c(Cl)ccc(F)c32)cc1` [Compound 103, 4-chloro-1-[4-(1,1-difluoroethyl)phenyl]sulfonyl-7-fluoro-3-[7-(5-fluoropyrimidin-2-yl)-4,7-diazaspiro [2.5]octan-4-yl]indazole] belongs ≥ 6.00; to `CC(F)(F)c1ccc(S(=O)(=O)n2nc(N3CCC3C(F)(F)F)c3c(Cl)cccc32)cc1` (centres unmarked) [Compound 104, 4-chloro-1-[4-(1,1-difluoroethyl)phenyl]sulfonyl-3-[2-(trifluoromethyl)azetidin-1-yl]indazole], ≥ 6.00; to `CC(F)(F)c1ccc(S(=O)(=O)n2nc(N3CCN(c4ncc(F)cn4)CC3C(C)(C)F)c3c(Cl)cccc32)cc1` (centres unmarked) [Compound 105, 4-chloro-1-((4-(1,1-difluoroethyl)phenyl)sulfonyl)-3-(2-(2-fluoropropan-2-yl)-4-(5-fluoropyrimidin-2-yl)piperazin-1-yl)-1H-indazole], ≥ 6.00.

For `CC(F)(F)c1ccc(S(=O)(=O)n2nc(N3CCN(c4ncc(F)cn4)C[C@H]3C(F)(F)F)c3c(Cl)cccc32)cc1` [Compound 106, 4-chloro-1-[4-(1,1-difluoroethyl)phenyl]sulfonyl-3-[(2S)-4-(5-fluoropyrimidin-2-yl)-2-(trifluoromethyl)piperazin-1-yl]indazole], the pEC50 is ≥ 6.00.
